Reference: US20100292233A1, “DIHYDRO-1H-PYRROLO[1,2-A]INDOL-1-YL CARBOXYLIC ACID DERIVATIVES WHICH ACT AS S1P1 AGONISTS” (ARENA PHARMACEUTICALS, INC., priority 2008, published 2010)
“Also recorded” adds a separate entry of the source. One block for each molecule: values may come before it.

Assays:
[1] = attributed to agonism of the S1P3 receptor; cited from earlier work
[2] = system: patients with multiple sclerosis; settings: Phase II, relapsing-remitting multiple sclerosis; cited from earlier work
[3] = short-term high dose; cited from earlier work
mice = settings: oral administration to mice; cited from earlier work
C57BL/6 mice = settings: prophylactic oral administration, 1 mg/kg, three times a week; cited from earlier work
S1P1 receptor = target: T1, S1P1 receptor (Homo sapiens, UniProt P21453); assay: HTRF assay for direct cAMP measurement (S1P1 receptor agonism); format: cell-based; settings: recombinant CHO-K1 cells stably transfected with S1P1 receptor; decrease of cAMP
T1 construct: expressed in transfected cells; host or cells: CHO-K1 (ATCC CCL-61)
T1 sequence (P21453 whole entry): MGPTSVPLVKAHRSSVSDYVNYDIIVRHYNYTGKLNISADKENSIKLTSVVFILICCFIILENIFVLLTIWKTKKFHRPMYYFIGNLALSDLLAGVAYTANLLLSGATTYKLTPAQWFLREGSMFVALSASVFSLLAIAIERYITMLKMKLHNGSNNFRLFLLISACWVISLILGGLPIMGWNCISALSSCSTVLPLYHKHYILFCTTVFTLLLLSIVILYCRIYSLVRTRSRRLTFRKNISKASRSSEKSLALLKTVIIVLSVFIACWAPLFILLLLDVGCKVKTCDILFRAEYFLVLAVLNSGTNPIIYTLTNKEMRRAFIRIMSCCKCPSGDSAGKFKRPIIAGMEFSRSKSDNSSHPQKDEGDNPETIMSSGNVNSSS
From the text: Compounds were screened for S1P1 receptor agonism (e.g., human S1P1 receptor) using the HTRF® assay for direct cAMP measurement (Gabriel et al, ASSAY and Drug Development Technologies, 1:291-303, 2003) and recombinant CHO-K1 cells stably transfected with S1P1 receptor. CHO-K1 cells were obtained from ATCC® (Manassas, Va.; Catalog #CCL-61). An agonist of the S1P1 receptor was detected in the HTRF® assay for direct cAMP measurement as a compound which decreased cAMP concentration. The HTRF® assay also was used to determine EC50 values for S1P1 receptor agonists.
Principle of the assay: The HTRF® assay kit was purchased from Cisbio-US, Inc. (Bedford, Mass.; Catalog #62AM4PEC). The HTRF® assay supported by the kit is a competitive immunoassay between endogenous cAMP produced by the CHO-K1 cells and tracer cAMP labeled with the dye d2. The tracer binding is visualized by a monoclonal anti-cAMP antibody labeled with Cryptate. The specific signal (i.e., fluorescence resonance energy transfer, FRET) is inversely proportional to the concentration of unlabeled cAMP in the standard or sample.
Standard curve: The fluorescence ratio (665 nm/620 nm) of the standards (0.17 to 712 nM cAMP) included in the assay was calculated and used to generate a cAMP standard curve according to the kit manufacturer's instructions. The fluorescence ratio of the samples (test compound or compound buffer) was calculated and used to deduce respective cAMP concentrations by reference to the cAMP standard curve.
Setup of the assay: The HTRF® assay was carried out using a two-step protocol essentially according to the kit manufacturer's instructions, in 20 μl total volume per well, 384-well plate format (ProxiPlates; PerkinElmer, Fremont, Calif.; catalog #6008280). To each of the experimental wells was transferred 1500 recombinant CHO-K1 cells in 5 μl phosphate buffered saline containing calcium chloride and magnesium chloride (“PBS+”; Invitrogen, Carlsbad, Calif.; catalog #14040) supplemented with IBMX (250 μM) and rolipram (20 μM) (phosphodiesterase inhibitors; Sigma-Aldrich, St. Louis, Mo.; catalog #I5879 and catalog #R6520, respectively), followed by test compound in 5 μl compound buffer (PBS+ supplemented with […] NKH477 (water-soluble forskolin derivative; SignaGen Laboratories, Gaithersburg, Md.; catalog #PKI-NKH477-010)) or 5 μl compound buffer. The plate was then incubated at room temperature for 1 hour. To each well was then added 5 μl cAMP-d2 conjugate in lysis buffer and 5 μl Cryptate conjugate in lysis buffer according to the kit manufacturer's instructions. The plate was then further incubated at room temperature for 1 hour, after which the assay plate was read.
Assay readout: HTRF® readout was accomplished using a PHERAstar (BMG LABTECH Inc., Durham, N.C.) or EnVision™ (PerkinElmer, Fremont, Calif.) microplate reader.

S1P3 receptor = target: T2, S1P3 receptor (Homo sapiens, UniProt Q99500); assay: Cellular/functional Ca2+ assay for agonist activity on S1P3 receptor; format: cell-based; settings: human neuroblastoma cells; FIG. 1; done by Caliper LifeSciences
T2 construct: a human neuroblastoma cell line which endogenously expresses S1P3 (predominantly), S1P2 and S1P5 receptors
T2 sequence (Q99500 whole entry): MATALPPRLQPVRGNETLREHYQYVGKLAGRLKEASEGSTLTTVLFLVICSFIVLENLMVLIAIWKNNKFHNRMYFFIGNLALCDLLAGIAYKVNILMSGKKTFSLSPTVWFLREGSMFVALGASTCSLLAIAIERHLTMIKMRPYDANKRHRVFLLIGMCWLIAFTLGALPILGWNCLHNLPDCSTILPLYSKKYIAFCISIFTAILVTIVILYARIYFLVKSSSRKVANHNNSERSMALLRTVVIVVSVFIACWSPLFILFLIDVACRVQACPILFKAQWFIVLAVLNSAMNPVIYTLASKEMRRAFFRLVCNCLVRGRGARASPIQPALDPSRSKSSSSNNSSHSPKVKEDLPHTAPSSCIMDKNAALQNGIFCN
Procedure: Of these, S1P3 and S1P2 receptors respond to agonists, such as S1P, with an intracellular calcium increase. […] Such an assay can be performed commercially, e.g. by Caliper LifeSciences (Hopkinton, Mass.).
Assay: Compound 2 (Enantiomer 1) was assayed for agonist activity on S1P3 receptor by Caliper LifeSciences. Human neuroblastoma cells were washed and resuspended in physiological buffer. The cells were then loaded with dye that measures intracellular calcium. S1P was used as a reference agonist. Compound 2 (Enantiomer 1) was included in the assay as a test compound. After addition of […] or Compound 2 (Enantiomer 1), fluorescence was measured at 485 nm excitation/525 nm emission every 2 sec for at least 60 sec. Calcium ionophore A23187 was then added as an internal positive control.

BALB/c mice = assay: Mouse peripheral lymphocyte lowering (PLL) assay; format: in vivo; settings: 1 mg/kg i.v., 5 hours post dose, FIG. 2
Procedure: Animals: Male BALB/c mice (6 to 7 weeks of age at start of study) (Charles River Laboratories, Wilmington, Mass.) were housed four per cage and maintained in a humidity—(40-60%) and temperature—(68-72° F.) controlled facility on a 12 hr:12 hr light/dark cycle (lights on at 6:30 am) with free access to food (Harlan Teklad, Orange, Calif., Rodent Diet 8604) and water. Mice were allowed one week of habituation to the animal facility before testing.
PLL Assay: Mice were administered via i.v. one of the following: vehicle (100% PEG400) or 1 mg/kg Compound 1 in vehicle, in a total volume of 5 mL/kg. Peripheral blood samples were collected at 5 hours post dose. The mice were anesthetized with isoflurane and bled retro-orbitally (300 μL) into 1.5 ml EDTA tubes. A complete […] (CBC) (including lymphocyte count) was obtained using CELL-DYN® 3700 (Abbott Laboratories, Abbott Park, Ill.). Results are presented in FIG. 2, in which the peripheral blood lymphocyte (PBL) count is shown for the 5 hour group.

Structure (SMILES): CCCCCCCCc1ccc(CCC(N)(CO)CO)cc1 [FTY720]
- adverse event in clinical trials [1]: transient asymptomatic bradycardia
- MRI lesions and clinical disease activity [2]: reduce the number of lesions detected by magnetic resonance imaging (MRI) and clinical disease activity
- ocular infiltrates [3]: rapidly reduced ocular infiltrates
- VEGF-induced vascular permeability (mice): potently blocked VEGF-induced vascular permeability
- development of EAMG (C57BL/6 mice): completely prevented the development of experimental autoimmune myasthenia gravis (EAMG)

- EC50 (S1P1 receptor): 10 nM
Structure (SMILES): N#Cc1cc(OC(F)(F)F)cc(-c2nc(-c3ccc4c(c3)cc3n4CCC3CC(=O)O)no2)c1 (racemic) [Compound 2, 2-(7-(5-(3-Cyano-5-(trifluoromethoxy)phenyl)-1,2,4-oxadiazol-3-yl)-2,3-dihydro-1H-pyrrolo[1,2-a]indol-1-yl)acetic Acid]

- EC50 (S1P1 receptor): 41 nM
Structure (SMILES): O=C(O)CC1CCn2c1cc1cc(-c3noc(-c4ccc5c(c4)OC(F)(F)O5)n3)ccc12 (stereo not shown) [Compound 8, 2-(7-(5-(2,2-Difluorobenzo[d][1,3]dioxol-5-yl)-1,2,4-oxadiazol-3-yl)-2,3-dihydro-1H-pyrrolo[1,2-a]indol-1-yl)acetic Acid]

Structure (SMILES): N#Cc1cc(OC(F)(F)F)cc(-c2nc(-c3ccc4c(c3)cc3n4CCC3CC(=O)O)no2)c1 (single isomer, unassigned) [Compound 2 (Enantiomer 1), 2-(7-(5-(3-Cyano-5-(trifluoromethoxy)phenyl)-1,2,4-oxadiazol-3-yl)-2,3-dihydro-1H-pyrrolo[1,2-a]indol-1-yl)acetic Acid]
- agonist activity on S1P3 receptor (intracellular calcium) (S1P3 receptor): substantially little to no activity; also recorded: no or substantially no agonist activity

- EC50 (S1P1 receptor): 13 nM
Structure (SMILES): O=C(O)CC1CCn2c1cc1cc(-c3noc(-c4cc(Br)cc(OC(F)(F)F)c4)n3)ccc12 (stereo not shown) [Compound 18, 2-(7-(5-(3-Bromo-5-(trifluoromethoxy)phenyl)-1,2,4-oxadiazol-3-yl)-2,3-dihydro-1H-pyrrolo[1,2-a]indol-1-yl)acetic Acid]

- EC50 (S1P1 receptor): 7.2 nM
Structure (SMILES): O=C(O)CC1CCn2c1cc1cc(-c3noc(-c4cc(C(F)(F)F)cc(C(F)(F)F)c4)n3)ccc12 (stereo not shown) [Compound 1, 2-(7-(5-(3,5-Bis(trifluoromethyl)phenyl)-1,2,4-oxadiazol-3-yl)-2,3-dihydro-1H-pyrrolo[1,2-a]indol-1-yl)acetic Acid]
- peripheral lymphocyte lowering (peripheral blood lymphocyte count vs vehicle) (BALB/c mice): exhibited activity for inducing peripheral lymphocyte lowering

- EC50 (S1P1 receptor): 6.3 nM
Structure (SMILES): N#Cc1cc(-c2nc(-c3ccc4c(c3)cc3n4CCC3CC(=O)O)no2)ccc1OCC(F)(F)F (stereo not shown) [Compound 15, 2-(7-(5-(3-Cyano-4-(2,2,2-trifluoroethoxy)phenyl)-1,2,4-oxadiazol-3-yl)-2,3-dihydro-1H-pyrrolo[1,2-a]indol-1-yl)acetic Acid]

Structure (SMILES): CNc1ccc2oc(C[C@H]3O[C@@]4(CC[C@H]3C)O[C@H]([C@H](C)C(=O)c3ccc[nH]3)[C@H](C)C[C@H]4C)nc2c1C(=O)O [Compound A23187, reference compound]
- agonist activity on S1P3 receptor (intracellular calcium) (S1P3 receptor): pronounced agonist activity
